Reference: DBAASP
Values after ≈ are worked out from the molar mass of the structure shown. Each block holds one compound with its values, some of them ahead of it.

How the values were obtained:
Experiment in all cases: ≥ marks a high value that may be exact or a test limit, other limits are often not marked, values filed in µg/mL are converted to µM
[1] = test system: Candida albicans ATCC 10231
[2] = test system: Bacillus subtilis ATCC 23857
[3] = test system: Escherichia coli ATCC 25922
[4] = test system: Staphylococcus aureus USA 300
[5] = test system: Klebsiella pneumoniae ATCC 13883
[6] = test system: Pseudomonas aeruginosa PAO1
[7] = test system: Staphylococcus aureus ATCC 25923
[8] = test system: Klebsiella pneumoniae ATCC 700603
[9] = test system: Escherichia coli ATCC 25726
[10] = test system: Pseudomonas aeruginosa ATCC 27853
[11] = test system: Candida albicans ATCC 90028
[12] = test system: Staphylococcus epidermidis ATCC 12228
[13] = test system: Staphylococcus aureus ATCC BAA-1556
[14] = test system: Listeria innocua
[15] = test system: Micrococcus luteus A270
[16] = test system: Escherichia coli
[17] = test system: Pseudomonas aeruginosa ATCC 9027
[18] = test system: Staphylococcus aureus NCTC 8325

MIC [13]: 12.5 µM (≈ 16.1 µg/mL)
SMILES: CC[C@H](C)[C@H](NC(=O)[C@H](Cc1c[nH]c2ccccc12)NC(=O)[C@H](CCCN=C(N)N)NC(=O)[C@H](CCCN=C(N)N)NC(=O)[C@H](Cc1c[nH]c2ccccc12)NC(=O)[C@@H](N)CCCCN)C(=O)N[C@@H](CCCN=C(N)N)C(=O)N[C@@H](Cc1c[nH]c2ccccc12)C(N)=O [KWRRWIRW]

MIC [13]: ≥ 100 µM
SMILES: CC(C)C[C@H](NC(=O)[C@H](CCCCN)NC(=O)[C@H](CCCCN)NC(=O)[C@H](CC(C)C)NC(=O)[C@H](CC(C)C)NC(=O)[C@H](CC(C)C)NC(=O)[C@H](CC(C)C)NC(=O)[C@H](CC(C)C)NC(=O)[C@@H](N)CC(C)C)C(N)=O [LLLLLLKKL]

MIC [3]: 16 µM (≈ 22.3 µg/mL)
MIC [7]: 64 µM (≈ 89.2 µg/mL)
MIC [8]: 64 µM (≈ 89.2 µg/mL)
MIC [17]: 32 µM (≈ 44.6 µg/mL)
MIC [2]: 16 µM (≈ 22.3 µg/mL)
SMILES: CC[C@H](C)[C@H](NC(=O)[C@H](CCCCN)NC(=O)[C@H](CCCCN)NC(=O)[C@H](C)NC(=O)[C@@H](NC(=O)[C@H](C)NC(=O)[C@H](CC(C)C)NC(=O)[C@H](CC(C)C)NC(=O)[C@H](C)NC(=O)[C@H](CCCCN)NC(=O)[C@H](CC(C)C)NC(=O)[C@H](CC(N)=O)NC(=O)[C@@H](N)CC(C)C)C(C)C)C(N)=O [LNLKALLAVAKKI]

MIC [3]: 40 µM (≈ 61.7 µg/mL)
MIC [7]: 16 µM (≈ 24.7 µg/mL)
MIC [9]: ≥ 64 µM
MIC [18]: 20 µM (≈ 30.9 µg/mL)
MIC [11]: ≥ 80 µM
SMILES: CC[C@H](C)[C@H](NC(=O)[C@H](CCCCN)NC(=O)[C@H](CCCCN)NC(=O)[C@H](C)NC(=O)[C@H](CC(C)C)NC(=O)[C@H](CC(N)=O)NC(=O)[C@@H](NC(=O)[C@H](CC(C)C)NC(=O)[C@@H](NC(=O)CNC(=O)[C@H](CC(C)C)NC(=O)[C@H](Cc1ccccc1)NC(=O)[C@@H](N)CC(N)=O)[C@@H](C)O)C(C)C)C(=O)N[C@@H](CC(C)C)C(N)=O [NFLGTLVNLAKKIL]

MIC [4]: ≥ 128 µM
SMILES: CC[C@H](C)[C@H](NC(=O)[C@H](CCCN=C(N)N)NC(=O)[C@@H](NC(=O)[C@@H](NC(=O)[C@H](CCCCN)NC(=O)[C@@H](NC(=O)[C@H](CC(C)C)NC(=O)[C@@H](NC(=O)[C@@H](NC(=O)[C@H](CCCCN)NC(=O)[C@H](CCCN=C(N)N)NC(=O)[C@H](Cc1ccc(O)cc1)NC(=O)CNC(=O)[C@H](Cc1cnc[nH]1)NC(=O)[C@H](CC(N)=O)NC(=O)[C@@H](N)C(C)C)C(C)C)[C@@H](C)O)[C@@H](C)O)[C@@H](C)O)C(C)C)C(=O)N[C@@H](CCCCN)C(=O)N[C@@H](CCCCN)C(=O)N[C@@H](Cc1ccccc1)C(=O)N[C@@H](CCSC)C(=O)O [VNHGYRKVTLTKTVRIKKFM]

MIC [14]: ≥ 53 µM
MIC [15]: ≥ 53 µM
MIC [16]: 26 µM (≈ 61.2 µg/mL)
SMILES: CC(C)C[C@H](NC(=O)[C@H](CO)NC(=O)[C@H](C)NC(=O)[C@H](Cc1cnc[nH]1)NC(=O)[C@@H](NC(=O)[C@H](C)NC(=O)[C@@H]1CCCN1C(=O)[C@@H](NC(=O)[C@H](Cc1ccccc1)NC(=O)[C@H](CC(=O)O)NC(=O)[C@H](CO)NC(=O)[C@@H]1CCCN1C(=O)[C@H](CC(C)C)NC(=O)[C@H](Cc1cnc[nH]1)NC(=O)[C@H](CO)NC(=O)[C@H](C)NC(=O)[C@H](CC(C)C)NC(=O)[C@@H](NC(=O)[C@@H](N)C(C)C)[C@@H](C)O)[C@@H](C)O)C(C)C)C(=O)N[C@@H](CC(=O)O)C(=O)N[C@@H](CCCCN)C(=O)N[C@@H](Cc1ccccc1)C(=O)O [VTLASHLPSDFTPAVHASLDKF]

Continued, compound first:

SMILES: N=C(N)NCCC[C@H](NC(=O)[C@H](CCCNC(=N)N)NC(=O)[C@H](Cc1ccccc1)NC(=O)[C@H](Cc1ccccc1)NC(=O)[C@H](CCCNC(=N)N)NC(=O)[C@H](CCCNC(=N)N)NC(=O)[C@H](Cc1ccccc1)NC(=O)[C@H](Cc1ccccc1)NC(=O)[C@H](CCCNC(=N)N)NC(=O)[C@H](CCCNC(=N)N)NC(=O)[C@H](Cc1ccccc1)NC(=O)[C@H](Cc1ccccc1)NC(=O)[C@H](CCCNC(=N)N)NC(=O)[C@H](CCCNC(=N)N)NC(=O)[C@H](Cc1ccccc1)NC(=O)[C@@H](N)Cc1ccccc1)C(N)=O [FFRRFFRRFFRRFFRR]
MIC [1]: > 20.5 µM
MIC [2]: 8.18 µM (≈ 20 µg/mL)

SMILES: CC[C@H](C)[C@H](NC(=O)CN)C(=O)N[C@H](C(=O)N[C@@H](C)C(=O)NCC(=O)N[C@H](C(=O)N[C@H](C(=O)N[C@H](C(=O)N[C@@H](CCCCN)C(=O)N[C@H](C(=O)N[C@@H](C)C(=O)N[C@@H](CCCCN)C(N)=O)[C@@H](C)CC)[C@@H](C)CC)[C@@H](C)CC)[C@@H](C)CC)[C@@H](C)CC [GIIAGIIIKIAK]
MIC [3]: > 128 µM
MIC [2]: ≥ 128 µM

SMILES: CC(C)C[C@H](NC(=O)[C@H](CCCCN)NC(=O)CNC(=O)[C@H](CC(C)C)NC(=O)[C@H](CC(C)C)NC(=O)[C@H](CC(C)C)NC(=O)[C@H](CO)NC(=O)[C@H](CC(C)C)NC(=O)[C@H](CC(C)C)NC(=O)[C@H](CC(C)C)NC(=O)[C@H](CO)NC(=O)[C@H](CC(C)C)NC(=O)CN)C(N)=O [GLSLLLSLLLGKL]
MIC [3]: > 25 µM
MIC [4]: 6.2 µM (≈ 8.3 µg/mL)
MIC [5]: 25 µM (≈ 33.5 µg/mL)
MIC [6]: > 25 µM

SMILES: CC[C@H](C)[C@H](NC(=O)[C@H](CCC(=O)O)NC(=O)CNC(=O)[C@H](CC(C)C)NC(=O)[C@H](Cc1ccccc1)NC(=O)[C@H](C)NC(=O)[C@H](CCCCN)NC(=O)CNC(=O)[C@H](Cc1ccccc1)NC(=O)[C@H](CCCCN)NC(=O)CNC(=O)[C@H](C)NC(=O)[C@H](CO)NC(=O)[C@H](Cc1cnc[nH]1)NC(=O)[C@H](CC(C)C)NC(=O)[C@@H](NC(=O)[C@H](CCCCN)NC(=O)[C@H](CO)NC(=O)[C@@H](NC(=O)CN)C(C)C)[C@@H](C)CC)C(=O)N[C@@H](CCSC)C(=O)N[C@@H](CCCCN)C(=O)N[C@@H](CO)C(=O)O [GVSKILHSAGKFGKAFLGEIMKS]
MIC [3]: 50 µM (≈ 120 µg/mL)
MIC [7]: > 100 µM
MIC [8]: 100 µM (≈ 241 µg/mL)
MIC [9]: ≥ 100 µM
MIC [10]: 200 µM (≈ 481 µg/mL)

SMILES: CC[C@H](C)[C@H](N)C(=O)N[C@@H](CCCCN)C(=O)N[C@H](C(=O)N1CCC[C@H]1C(=O)N[C@@H](C)C(=O)N[C@H](C(=O)N[C@H](C(=O)N[C@@H](CCCCN)C(=O)N[C@@H](CC(=O)O)C(=O)N[C@H](C(=O)N[C@@H](CC(C)C)C(=O)N[C@@H](CCCCN)C(=O)N[C@@H](CCCCN)C(=O)N[C@H](C(=O)N[C@@H](C)C(=O)N[C@@H](CCCCN)C(=O)NCC(=O)N[C@H](C(=O)N[C@@H](CC(C)C)C(=O)N[C@@H](CO)C(=O)N[C@@H](C)C(=O)N[C@H](C(=O)N[C@@H](C)C(=O)NCC(=O)N[C@@H](C)C(=O)N[C@@H](CC(C)C)C(=O)N[C@H](C(=O)N[C@@H](CCC(N)=O)C(=O)O)[C@@H](C)O)C(C)C)C(C)C)C(C)C)[C@@H](C)O)C(C)C)C(C)C)[C@@H](C)CC [IKIPAVVKDTLKKVAKGVLSAVAGALTQ]
MIC [7]: 40 µM (≈ 113 µg/mL)
MIC [8]: 40 µM (≈ 113 µg/mL)
MIC [9]: 20 µM (≈ 56.4 µg/mL)
MIC [10]: 40 µM (≈ 113 µg/mL)
MIC [11]: ≥ 80 µM

SMILES: CC[C@H](C)[C@H](N)C(=O)N[C@@H](CC(C)C)C(=O)NCC(=O)N[C@H](C(=O)N[C@H](C(=O)N[C@@H](CC(C)C)C(=O)NCC(=O)N[C@@H](CC(C)C)C(=O)N[C@@H](CC(C)C)C(=O)N[C@@H](CCCCN)C(=O)N[C@@H](CC(N)=O)C(=O)N[C@@H](CC(C)C)C(N)=O)[C@@H](C)CC)[C@@H](C)O [ILGTILGLLKNL]
MIC [3]: 32 µM (≈ 40.5 µg/mL)
MIC [7]: 8 µM (≈ 10.1 µg/mL)
MIC [2]: 4 µM (≈ 5.07 µg/mL)
MIC [12]: 4 µM (≈ 5.07 µg/mL)

SMILES: CC[C@H](C)[C@H](N)C(=O)N[C@@H](CC(C)C)C(=O)NCC(=O)N[C@H](C(=O)N[C@H](C(=O)N[C@@H](CC(C)C)C(=O)NCC(=O)N[C@@H](CC(C)C)C(=O)N[C@@H](CC(C)C)C(=O)N[C@@H](CCCCN)C(=O)N[C@H](C(=O)N[C@@H](CC(C)C)C(N)=O)[C@@H](C)O)[C@@H](C)CC)[C@@H](C)O [ILGTILGLLKTL]
MIC [3]: 64 µM (≈ 80.2 µg/mL)
MIC [7]: 8 µM (≈ 10 µg/mL)
MIC [2]: 4 µM (≈ 5.01 µg/mL)
MIC [12]: 4 µM (≈ 5.01 µg/mL)

SMILES: CC(C)C[C@H](NC(=O)[C@H](CC(C)C)NC(=O)[C@H](Cc1c[nH]c2ccccc12)NC(=O)[C@H](CCCCN)NC(=O)[C@H](CC(C)C)NC(=O)[C@H](CC(C)C)NC(=O)[C@H](CCCCN)NC(=O)[C@@H](N)CCCCN)C(=O)N[C@@H](CCCCN)C(N)=O [KKLLKWLLK]
MIC [13]: ≥ 100 µM

SMILES: CC(C)C[C@H](NC(=O)[C@H](CC(C)C)NC(=O)[C@H](CC(C)C)NC(=O)[C@H](CC(C)C)NC(=O)[C@H](CCCCN)NC(=O)[C@H](CC(C)C)NC(=O)[C@H](CC(C)C)NC(=O)[C@H](CC(C)C)NC(=O)[C@@H](N)CCCCN)C(N)=O [KLLLKLLLL]
MIC [13]: ≥ 100 µM

SMILES: CC(C)C[C@H](NC(=O)[C@H](CC(C)C)NC(=O)[C@H](CO)NC(=O)[C@H](Cc1cnc[nH]1)NC(=O)[C@H](CO)NC(=O)[C@H](CC(C)C)NC(=O)[C@H](CC(C)C)NC(=O)[C@@H](N)CCCCN)C(=O)O [KLLSHSLL]
MIC [14]: ≥ 34 µM
MIC [15]: ≥ 34 µM
MIC [16]: 68 µM (≈ 61.9 µg/mL)
